The text below walks through data of patent US5198461A, “Isatine derivatives, their preparation and use” (NeuroSearch A/S, priority 1989, dated 1993).

For experiment [1], the target named is 3H-kainate, 3H-AMPA and/or 3H-glycine binding sites. Kind of experiment: Kainate, quisqualate (3H-AMPA) and glycine binding assays. Conditions: site(s) not specified per compound ('and/or'). The procedure: The quisqualate binding assay was performed as described by T. Honore et al., Neuroscience Letters 54, 27-32 (1985).
The kainate binding assay was performed as described by T. Honore et al., Neuroscience Letters 65, 47-52 (1986).
The glycine binding assay was performed as described by W. Frost White et al., Journal of Neurochemistry 53(2), 503-512 (1989).

Experiment [2] has as its system NMDA-induced clonic seizures in male NMRI mice. Kind of experiment: NMDA-induced clonic seizures. Format: in vivo. Conditions: Mus musculus, iv, NMDA icv, test compound i.v. 5 min before, given as 'quisqualate or NMDA-induced convulsions', read-out: ED50, inhibition of NMDA-induced convulsions. The procedure: NMDA give icv to NMRI mice induces clonic seizures which can be inhibited by NMDA receptor antagonists.
Test compound was given i.v. 5 min before a 0.5 μg icv administration of NMDA to 10 male NMRI mice per dose. The number of mice experiencing clonic seizures within the next 2 min was noted. An ED50 value was calculated as the dose inhibiting 50% of the mice from having clonic seizures.

Experiment [3] concerns quisqualate-induced clonic seizures in male DBA/2 mice. Kind of experiment: Quisqualate-induced clonic seizures. Format: in vivo. Conditions: Mus musculus, iv, quisqualate icv, test compound i.v. 5 min before, given as 'quisqualate or NMDA-induced convulsions', read-out: ED50, inhibition of quisqualate-induced convulsions. The procedure:
Quisqualate given icv (intracerebroventricular) to DBA/2 mice induces clonic seizures which can be inhibited by both NMDA and non-NMDA receptor antagonists after i.v. administration.
Test compound was given i.v. 5 min before a 20 pg icv administration of quisqualate to 10 male DBA/2 mice (weighing 10-12 g) per dose. The number of mice experiencing clonic seizures within the next 2 min was noted. An ED50 value was calculated as the dose inhibiting 50% of the mice from having clonic seizures.

Experiment [4] concerns cocaine-induced hypermotility in female NMRI mice. Kind of experiment: Cocaine-induced hypermotility. The conditions noted are these: Mus musculus, po, administered orally, 25 mg/kg cocaine i.p., read-out: ED50, antagonism of cocaine-induced hypermotility. Format: in vivo. An excerpt:
Quisqualate and kainate administered locally induce an increase in dopamine release in nucleus accumbens and nucleus caudatus accompanied by stereotype behaviour such as hyperlocomotion, rearing, sniffing and grooming. These effects can be inhibited by selective quisqualate antagonists administered locally by the micro-dialyses method.
Also the dopamine uptake inhibitor cocaine administered s.c. induce hypermotility which can be inhibited by an administration of the glutamate antagonist GDEE into nucleus accumbens.
Test compound was administered orally at doses of 0.1, 1, 10 and 30 mg/kg 30 min before the administration of 25 mg/kg cocaine i.p. to female NMRI mice and the locomotor activity of 2 mice per box was measured for the next 2 hours by use of 8 infrared photobeams per box. The mice had been adapted to the box for at least 16 hours to avoid exploratory motility (neophobia).

Experiment [5] has as its system ATPA-induced rigidity in female NMRI mice. Kind of experiment: ATPA-induced rigidity. Conditions: Mus musculus, 15 mg/kg ATPA i.v., test compound i.v. or p.o., read-out: ED50, inhibition of ATPA-induced rigidity. Format: in vivo. The procedure:
The selective quisqualate receptor agonist ATPA induces rigidity in female NMRI mice at doses between 3 and 15 mg/kg and clonic-tonic seizures and death, probably due to respiratory arrest, at doses between 15 and 40 mg/kg after intravenous (i.v.) administration.
ATPA ((RS)-α-amino-3-hydroxy-5-tert-butyl-4-isoxazolepropionic acid) was dissolved in distilled water and test compound was dissolved in a polyoxyl 40 hydrogenated castor oil (5% Cremophor RH™ 40 (BASF)).
Test compound was administered either i.v. 5, 30 or 120 min before or p.o. 30 min before an i.v. administration of 15 mg/kg of ATPA to 8 female NMRI mice per dose and the number of mice experiencing rigidity 5 min later was noted. An ED50 value was calculated from at least three doses of test compound as the dose inhibiting 50% of the mice from having rigidity.

Take `CN1C(=O)C(=NO)c2cc([N+](=O)[O-])cc([N+](=O)[O-])c21` [5,7-dinitro-1-methyl-1H-indole-2,3-dione-3-oxime]: in experiment [1], the half-inhibitory concentration (IC50) is 10 to 100 µM.

On to `O=C1Nc2c(cc([N+](=O)[O-])c3c2CCCC3)C1=NO` [5-nitro-1H-6,7,8,9-tetrahydro-benz[g]indole-2,3-dione-3-oxime], for which the half-maximal inhibitory concentration (IC50) in experiment [1] fell in the range of 10 to 100 µM.

In turn, `CNS(=O)(=O)c1cc2c(c3c1CCCC3)NC(=O)C2=NO` [5-(N-methylsulphamoyl)-6,7,8,9-tetrahydro-1H-benz[g]indole-2,3-dione-3-oxime] registered a 50% inhibitory concentration (IC50) in experiment [1] of 10 to 100 µM.

For `O=C1Nc2c(ccc3ccccc23)C1=NO` [1H-benz[g]indole-2,3-dione-3-oxime], the half-inhibitory concentration (IC50) in experiment [1] lay in the range of 10 to 100 µM.

Consider `O=C1Nc2ccc([N+](=O)[O-])cc2C1=NO` [5-nitro-1H-indole-2,3-dione-3-oxime], for which the IC50 in experiment [1] is 10 to 100 µM.

On to `CON=C1C(=O)N(C)c2c1cc([N+](=O)[O-])cc2[N+](=O)[O-]` [5,7-dinitro-1-methyl-1H-indole-2,3-dione-3-(O-methyloxime)], for which the 50% effective dose (ED50) in experiment [2] was 0.1 to 10 mg/kg; in experiment [3], 0.1 to 10 mg/kg; in experiment [4], 0.5 to 1 mg/kg; in experiment [5], 0.1 to 10 mg/kg.

For `O=C1Nc2c(cc([N+](=O)[O-])cc2[N+](=O)[O-])C1=NO` [5,7-dinitro-1H-indole-2,3-dione-3-oxime], in experiment [1], the concentration for half-maximal inhibition (IC50) was 10 to 100 µM.

Molecule `O=C1Nc2c(cc(S(=O)(=O)NOCc3ccccc3)c3c2CCCC3)C1=NO` [5-(benzyloxysulphamoyl)-6,7,8,9-tetrahydro-1H-benz[g]indole-2,3-dione-3-oxime] yielded an IC50 in experiment [1] of 10 to 100 µM.

`O=C1Nc2c(cc([N+](=O)[O-])c3ccccc23)C1=NO` [5-nitro-1H-benz[g]indole-2,3-dione-3-oxime] gave an IC50 in experiment [1] of 10 to 100 µM.

For `O=C1Nc2c(cc(Br)cc2[N+](=O)[O-])C1=NO` [5-bromo-7-nitro-1H-indole-2,3-dione-3-oxime], the IC50 in experiment [1] fell in the range of 10 to 100 µM.

With `CCOC(=O)CN1C(=O)C(=NOC)c2cc([N+](=O)[O-])cc([N+](=O)[O-])c21` [5,7-dinitro-1-(ethoxycarbonylmethyl)-1H-indole-2,3-dione-3-(O-methyloxime)], the ED50 in experiment [2], in experiment [3] and in experiment [5] was 0.1 to 10 mg/kg each time.
